Laboratory results taken from patent US10273228B2, “Hepatitis B viral assembly effectors” (Indiana University Research and Technology Corporation, priority 2015, dated 2019).
Read-outs that look alike come from different tables or passages of the source.

Key:
AD38 cells = assay: AD38 viability normalized to DMSO control; format: cell-based; details: 10 μM compound, vs DMSO control
Procedure: AD38 cells were then re-suspended with 10 mL of treatment medium and counted. Wells of a collagen coated 96-well NUNC microtiter plate were seeded at 50,000/well in 180 μL of treatment medium, and 20 μL of either 10% DMSO (Control) or a 10× solution of test compound in 10% DMSO in treatment media was added for a final compound concentration 1, 3, or 10 μM (1.0% final [DMSO]) and plates were incubated for 6 days at 37° C.

[1] = system: HBV viral load, AD38 cells; assay: Activity of test compounds on viral production from AD38 cells (viral load by quantitative PCR of the core sequence in supernatant); format: cell-based, Hepatitis B virus; details: 10 μM compound, 6 days at 37° C., vs DMSO control wells; for activity at 10 µM: Hepatitis B virus, 144 h, read-out: AD38 Viral Load (CpAM/DMSO %) at 10 μM
Outline: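 Cells seeded at 50,000/well on collagen-coated plates and exposed for 6 days at 37 °C to compound at 1, 3 or 10 μM final (1.0% DMSO). Supernatant viral DNA measured by TaqMan qPCR of the core sequence against known standards, compared with DMSO control wells.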

Compound | AD38 Viability Normalized Result (CPAM/DMSO %) at 10 μM (AD38 cells; Table 6) | activity at 10 µM ([1]; Table 6) | AD38 Viability Normalized Result (CPAM/DMSO %) at 10 μM (AD38 cells; Table 9) | AD38 Viral Load (CpAM/DMSO %) at 10 μM ([1]; Table 9) | activity at 10 µM ([1]; Table 9)
Cc1ccc(Nc2cc(C)nc(N3CCN(S(=O)(=O)c4cnc(N)nc4)CC3)n2)cc1 [Compound 1260] | 98% | 78% | – | – | –
CCCCOc1ccc(S(=O)(=O)N2CCN(c3nc(Nc4ccc(F)cc4)cc(-c4nccs4)n3)CC2)cc1 [Compound 1368] | – | – | 94% | 147% | –
O=S(=O)(c1ccc(OCCN2CCOCC2)cc1)N1CCN(c2nc(Nc3ccc(F)cc3)cc(C(F)(F)F)n2)CC1 [Compound 1390, N-(4-fluorophenyl)-2-(4-((4-(2-morpholinoethoxy)phenyl)sulfonyl)piperazin-1-yl)-6-(trifluoromethyl) pyrimidin-4-amine] | – | – | 104% | – | 1%
Cc1ccc(S(=O)(=O)N2CCN(c3nc(Nc4ccc(F)cc4)cc(C(F)(F)F)n3)CC2)cc1 [Compound 1344] | – | – | 0% | – | 2%
CN(C)CCOc1ccc(S(=O)(=O)N2CCN(c3nc(Nc4ccc(F)cc4)cc(C(F)(F)F)n3)CC2)cc1 [Compound 1389, 2-(4-((4-(2-(dimethylamino)ethoxy)phenyl)sulfonyl)piperazin-1-yl)-N-(4-fluorophenyl)-6-(trifluoromethyl) pyrimidin-4-amine] | – | – | 0% | – | 2%
O=S(=O)(c1ccc(F)cc1)N1CCN(c2nc(Nc3ccc(F)cc3)cc(-c3nccs3)n2)CC1 [Compound 1375] | – | – | 104% | 43% | –
CCCCOc1ccc(S(=O)(=O)N2CCN(c3nc(Nc4ccc(F)cc4)cc(-c4nccs4)n3)CC2)cc1 [Compound 1359] | – | – | 97% | 60% | –
CC(C)c1cc(Oc2ccc(F)cc2)nc(N2CCN(S(=O)(=O)c3ccc(C(F)(F)F)cc3)CC2)n1 [Compound 1296] | 103% | 102% | – | – | –
Cc1cc(Nc2ccc(F)cc2)nc(N2CCN(S(=O)(=O)c3ccc(CC(=O)O)cc3)CC2)n1 [Compound 1392, 2-(4-((4-(4-((4-fluorophenyl)amino)-6-methylpyrimidin-2-yl)piperazin-1-yl)sulfonyl)phenyl) acetic acid] | – | – | 99% | – | 69%
CC(C)c1cc(Oc2ccc(F)cc2)nc(N2CCN(S(=O)(=O)c3ccccc3)CC2)n1 [Compound 1301] | 102% | 63% | – | – | –
COc1ccc(S(=O)(=O)N2CCN(c3nc(Nc4ccc(C)cc4)cc(N4CCN(C)CC4)n3)CC2)cc1 [Compound 1207] | 0% | 83% | – | – | –
COc1ccc(S(=O)(=O)N2CCN(c3nc(C)cc(Nc4ccc(C#N)cc4)n3)C(C)C2)cc1 (stereo not shown) [Compound 1363] | – | – | 93% | – | 1%
N#Cc1ccc(Nc2cc(-c3cncs3)nc(N3CCN(S(=O)(=O)c4ccc(OC(F)(F)F)cc4)CC3)n2)cc1 [Compound 1372] | – | – | 109% | – | 21%
COc1ccc(S(=O)(=O)N2CCN(c3nc(Nc4ccc(C)cc4)cc(N(C)C)n3)CC2)cc1 [Compound 1143] | 107% | 8% | – | – | –
Cc1cc(Nc2ccc(C#N)cc2)nc(N2CCN(S(=O)(=O)c3ccc(OCCN(C)C)cc3)CC2)n1 [Compound 1377, 4-((2-(4-((4-(2-(dimethylamino)ethoxy)phenyl)sulfonyl)piperazin-1-yl)-6-methylpyrimidin-4-yl)amino) benzonitrile] | – | – | 15% | – | 1%
Cc1ccc(Nc2cc(C)nc(N3CCN(S(=O)(=O)c4ccncc4)CC3)n2)cc1 [Compound 1258] | 105% | 50% | – | – | –
CN(C)c1cc(Oc2ccc(F)cc2)nc(N2CCN(S(=O)(=O)c3ccccc3)CC2)n1 [Compound 1299] | 112% | 54% | – | – | –
Cc1ccc(Nc2cc(C)nc(N3CCN(S(=O)(=O)c4ccc(Oc5ccccc5)cc4)CC3)n2)cc1 [Compound 1136] | 113% | 24% | – | – | –
Cc1ccc(Nc2cc(C)nc(N3CCN(S(=O)(=O)c4cccnc4)CC3)n2)cc1 [Compound 1133] | 108% | 35% | – | – | –
CCOc1ccc(S(=O)(=O)N2CCN(c3nc(Nc4ccc(C#N)cc4)cc(-c4cncs4)n3)CC2)cc1 [Compound 1373] | – | – | 109% | – | 8%
CN(C)c1cc(Oc2ccc(F)cc2)nc(N2CCN(S(=O)(=O)c3cccc(C(F)(F)F)c3)CC2)n1 [Compound 1289] | 105% | 55% | – | – | –
O=S(=O)(c1ccccc1)N1CCN(c2nc(Nc3ccc(F)cc3)cc(-c3nccs3)n2)CC1 [Compound 1360] | – | – | 94% | – | 28%
Cc1ccc(S(=O)(=O)N2CCN(c3nc(Nc4ccc(F)cc4)cc(-c4nccs4)n3)CC2)cc1 [Compound 1361] | – | – | 95% | – | 25%
